The source of these data is patent US12091426B2, “Bifunctional degraders of hematopoietic progenitor kinase and therapeutic uses thereof” (Nurix Therapeutics, Inc., priority 2021, dated 2024).

The target in this test is T1, HPK1 (Homo sapiens, UniProt Q92918).
T1 construct: A HiBiT tag was introduced by CRISPR on the N terminus of HPK1 in Jurkat cells; host or cells: Jurkat cells (ATCC TIB-152), monoclonal line with CRISPR knock-in of HiBiT at the endogenous HPK1 locus
Put plainly: HPK1 Cellular HiBit Degradation Assay. Type of test: cell-based. Conditions: HiBiT HPK1 Jurkat cells, 24 hrs; for DC50: concentration at which 50% of HPK1 was remaining, read-out: DC50 Category; for Dmax: Jurkat, maximum degradation vs DMSO vehicle control, read-out: Dmax Category. The method, boiled down: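 HPK1 levels are read by HiBiT luminescence after 24 h exposure of HiBiT-knock-in Jurkat cells to compound at 10 uM–0.1 nM final (11 points). Relative to DMSO (100%), DC50 is the concentration leaving 50% HPK1 from a variable-slope fit, and Dmax is 100 minus minimum remaining. Viability checked in-plate.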
In general terms: The HiBiT peptide binds its large partner to form an active luciferase.

Structures are written as SMILES. Where only a bound is given, the exact number is not on record here.

T1 sequence (Q92918 whole entry): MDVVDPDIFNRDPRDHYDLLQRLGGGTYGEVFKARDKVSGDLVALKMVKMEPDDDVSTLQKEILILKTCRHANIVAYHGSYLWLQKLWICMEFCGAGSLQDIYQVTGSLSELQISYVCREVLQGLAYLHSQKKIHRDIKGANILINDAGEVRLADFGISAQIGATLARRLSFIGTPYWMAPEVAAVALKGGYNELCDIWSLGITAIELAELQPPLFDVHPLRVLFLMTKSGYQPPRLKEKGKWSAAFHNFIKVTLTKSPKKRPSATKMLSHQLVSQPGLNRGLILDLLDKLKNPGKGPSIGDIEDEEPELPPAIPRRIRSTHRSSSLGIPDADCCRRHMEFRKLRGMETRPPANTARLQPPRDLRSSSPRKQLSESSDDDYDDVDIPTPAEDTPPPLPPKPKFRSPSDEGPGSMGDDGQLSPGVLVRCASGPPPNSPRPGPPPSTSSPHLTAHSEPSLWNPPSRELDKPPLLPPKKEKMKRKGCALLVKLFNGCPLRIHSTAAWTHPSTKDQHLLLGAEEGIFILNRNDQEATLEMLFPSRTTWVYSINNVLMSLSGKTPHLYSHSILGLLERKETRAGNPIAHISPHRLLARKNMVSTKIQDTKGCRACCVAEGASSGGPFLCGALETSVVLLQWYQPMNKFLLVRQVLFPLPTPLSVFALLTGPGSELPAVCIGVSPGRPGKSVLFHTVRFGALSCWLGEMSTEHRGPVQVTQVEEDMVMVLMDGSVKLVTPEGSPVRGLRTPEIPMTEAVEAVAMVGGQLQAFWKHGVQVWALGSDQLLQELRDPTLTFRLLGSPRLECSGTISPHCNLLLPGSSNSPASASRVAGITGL

As usually defined, the DC50 is the midpoint of the concentration-degradation curve. One may read the Dmax as the largest share of the target that was removed. For the compound `CC(C)n1cnc2cc(-c3ccc4c(c3)N([C@H]3C[C@@H](N5CCCCC5)C3)C(=O)C43CCN(C(=O)[C@@H]4CCN(C(=O)[C@H]5CC[C@H](Oc6ccc(N7CCC(=O)NC7=O)cn6)CC5)C4)CC3)nc(NC3CC3)c21` [Example 20, 1-(6-{[(1R,4R)-4-[(3R)-3-({6-[4-(cyclopropylamino)-3-(propan-2-yl)-3H-imidazo[4,5-c]pyridin-6-yl]-2-oxo-1-[(1S,3S)-3-(piperidin-1-yl)cyclobutyl]-1,2-dihydrospiro[indole-3,4′-piperidin]-1′-yl}carbonyl)pyrrolidine-1-carbonyl]cyclohexyl]oxy}pyridin-3-yl)-1,3-diazinane-2,4-dione], the DC50 is less than 100 nM and the maximal degradation (Dmax) is 70 to 85%.

With `CC(C)n1cnc2cc(-c3ccc4c(c3)N([C@H]3C[C@@H](N5CCCCC5)C3)C(=O)C43CCN(C(=O)[C@@H]4CCN(C(=O)[C@H]5CC[C@H](Oc6ccc(N7CCC(=O)NC7=O)cn6)CC5)C4)CC3)nc(Nc3ccccc3F)c21` [Example 21, 1-(6-{[(1R,4R)-4-[(3R)-3-[(6-{4-[(2-fluorophenyl)amino]-3-(propan-2-yl)-3H-imidazo[4,5-c]pyridin-6-yl}-2-oxo-1-[(1S,3S)-3-(piperidin-1-yl)cyclobutyl]-1,2-dihydrospiro[indole-3,4′-piperidin]-1′-yl)carbonyl]pyrrolidine-1-carbonyl]cyclohexyl]oxy}pyridin-3-yl)-1,3-diazinane-2,4-dione], the DC50 is less than 100 nM and the Dmax is more than 85%.

On to `CC(C)n1cnc2cc(-c3ccc4c(c3)N([C@H]3C[C@@H](N5CCCCC5)C3)C(=O)C43CCN(C(=O)[C@@H]4CCN(C(=O)[C@H]5CC[C@H](Oc6ccc(N7CCC(=O)NC7=O)cn6)CC5)C4)CC3)nc(Nc3ccncc3F)c21` [Example 22, 1-(6-{[(1R,4R)-4-[(3R)-3-[(6-{4-[(3-fluoropyridin-4-yl)amino]-3-(propan-2-yl)-3H-imidazo[4,5-c]pyridin-6-yl}-2-oxo-1-[(1S,3S)-3-(piperidin-1-yl)cyclobutyl]-1,2-dihydrospiro[indole-3,4′-piperidin]-1′-yl)carbonyl]pyrrolidine-1-carbonyl]cyclohexyl]oxy}pyridin-3-yl)-1,3-diazinane-2,4-dione], for which the DC50 is less than 100 nM and the Dmax is 70 to 85%.

Consider `CC(C)n1cnc2cc(-c3ccc4c(c3)N([C@H]3C[C@@H](N5CCCCC5)C3)C(=O)C43CCN(C(=O)[C@@H]4CCN(C(=O)C5CCN(c6ccc(C7CCC(=O)NC7=O)cn6)CC5)C4)CC3)nc(Nc3ccccc3F)c21` (stereo partly drawn) [Example 24, 3-(6-(4-((R)-3-(6-(4-((2-fluorophenyl)amino)-3-isopropyl-3H-imidazo[4,5-c]pyridin-6-yl)-2-oxo-1-((1s,3S)-3-(piperidin-1-yl)cyclobutyl)spiro[indoline-3,4′-piperidine]-1′-carbonyl)pyrrolidine-1-carbonyl)piperidin-1-yl)pyridin-3-yl)piperidine-2,6-dione], for which the DC50 is less than 100 nM and the Dmax is more than 85%.

In the case of `CC(C)n1cnc2cc(-c3ccc4c(c3)N([C@H]3C[C@@H](N5CCCCC5)C3)C(=O)C43CCN(C(=O)[C@H]4CC[C@H](C(=O)N5CCC(Nc6ccc(C7CCC(=O)NC7=O)cn6)CC5)CC4)CC3)nc(Nc3ccccc3F)c21` (stereo partly drawn) [Example 26, 3-(6-((1-((1R,4R)-4-(6-(4-((2-fluorophenyl)amino)-3-isopropyl-3H-imidazo[4,5-c]pyridin-6-yl)-2-oxo-1-((1s,3S)-3-(piperidin-1-yl)cyclobutyl)spiro[indoline-3,4′-piperidine]-1′-carbonyl)cyclohexane-1-carbonyl)piperidin-4-yl)amino)pyridin-3-yl)piperidine-2,6-dione], the DC50 was less than 100 nM and the maximal degradation (Dmax) was 70 to 85%.

On to `CC(C)n1cnc2cc(-c3ccc4c(c3)N([C@H]3C[C@@H](N5CCCCC5)C3)C(=O)C43CCN(C(=O)C4CCN(C(=O)[C@H]5CC[C@H](C(=O)N6CCc7cc(C8CCC(=O)NC8=O)ccc7C6)CC5)CC4)CC3)nc(Nc3ccccc3F)c21` (stereo partly drawn) [Example 48, 3-(2-((1R,4R)-4-(4-(6-(4-((2-fluorophenyl)amino)-3-isopropyl-3H-imidazo[4,5-c]pyridin-6-yl)-2-oxo-1-((1S,3S)-3-(piperidin-1-yl)cyclobutyl)spiro[indoline-3,4′-piperidine]-1′-carbonyl)piperidine-1-carbonyl)cyclohexane-1-carbonyl)-1,2,3,4-tetrahydroisoquinolin-6-yl)piperidine-2,6-dione], for which the DC50 is less than 100 nM and the Dmax is 70 to 85%.

As for `CC(C)n1cnc2cc(-c3ccc4c(c3)N([C@H]3C[C@@H](N5CCCCC5)C3)C(=O)C43CCN(C(=O)C4CCN(C(=O)[C@H]5CC[C@H](C(=O)N6CCc7cc(N8CCC(=O)NC8=O)ccc7C6)CC5)CC4)CC3)nc(Nc3ccccc3F)c21` [Example 49, 1-{2-[(1R,4R)-4-{4-[(6-{4-[(2-fluorophenyl)amino]-3-(propan-2-yl)-3H-imidazo[4,5-c]pyridin-6-yl}-2-oxo-1-[(1S,3S)-3-(piperidin-1-yl)cyclobutyl]-1,2-dihydrospiro[indole-3,4′-piperidin]-1′-yl)carbonyl]piperidine-1-carbonyl}cyclohexanecarbonyl]-1,2,3,4-tetrahydroisoquinolin-6-yl}-1,3-diazinane-2,4-dione], the DC50 is 100 to 500 nM and the greatest degradation seen (Dmax) is 50 to 70%.

Turning to `CC(C)n1cnc2cc(-c3ccc4c(c3)N([C@H]3C[C@@H](N5CCCCC5)C3)C(=O)C43CCN(C(=O)C4CCN(C(=O)C5CCN(c6ccc(C7CCC(=O)NC7=O)cc6)CC5)CC4)CC3)nc(NC3CC3)c21` (stereo partly drawn) [Example 66, 3-(4-(4-(4-(6-(4-(cyclopropylamino)-3-isopropyl-3H-imidazo[4,5-c]pyridin-6-yl)-2-oxo-1-((1S,3S)-3-(piperidin-1-yl)cyclobutyl)spiro[indoline-3,4′-piperidine]-1′-carbonyl)piperidine-1-carbonyl)piperidin-1-yl)phenyl)piperidine-2,6-dione], the DC50 was less than 100 nM and the greatest degradation seen (Dmax) lay in the range of 70 to 85%.

For the compound `CC(C)n1cnc2cc(-c3ccc4c(c3)N([C@H]3C[C@@H](N5CCCCC5)C3)C(=O)C43CCN(C(=O)C4CCN(C(=O)C5CCN(c6ccc(C7CCC(=O)NC7=O)cc6)CC5)CC4)CC3)nc(Nc3ccncc3F)c21` (stereo partly drawn) [Example 68, 3-(4-(4-(4-(6-(4-((3-fluoropyridin-4-yl)amino)-3-isopropyl-3H-imidazo[4,5-c]pyridin-6-yl)-2-oxo-1-((1S,3S)-3-(piperidin-1-yl)cyclobutyl)spiro[indoline-3,4′-piperidine]-1′-carbonyl)piperidine-1-carbonyl)piperidin-1-yl)phenyl)piperidine-2,6-dione], the DC50 is less than 100 nM and the Dmax is 70 to 85%.

Take `CC(C)n1cnc2cc(-c3ccc4c(c3)N([C@H]3C[C@@H](N5CCCCC5)C3)C(=O)C43CCN(C(=O)C4CCN(C(=O)C5CCN(c6ccc(N7CCC(=O)NC7=O)cc6)CC5)CC4)CC3)nc(NC3CC3)c21` [Example 69, 1-(4-{4-[4-({6-[4-(cyclopropylamino)-3-(propan-2-yl)-3h-imidazo[4,5-c]pyridin-6-yl]-2-oxo-1-[(1S,3S)-3-(piperidin-1-yl)cyclobutyl]-1,2-dihydrospiro[indole-3,4′-piperidin]-1′-yl}carbonyl)piperidine-1-carbonyl]piperidin-1-yl}phenyl)-1,3-diazinane-2,4-dione]: the DC50 is less than 100 nM and the Dmax fell in the range of 70 to 85%.

As to `CC(C)n1cnc2cc(-c3ccc4c(c3)N([C@H]3C[C@@H](N5CCCCC5)C3)C(=O)C43CCN(C(=O)C4CCN(C(=O)C5CCN(c6ccc(N7CCC(=O)NC7=O)cc6)CC5)CC4)CC3)nc(Nc3ccccc3F)c21` [Example 70, 1-[4-(4-{4-[(6-{4-[(2-fluorophenyl)amino]-3-(propan-2-yl)-3H-imidazo[4,5-c]pyridin-6-yl}-2-oxo-1-[(1S,3S)-3-(piperidin-1-yl)cyclobutyl]-1,2-dihydrospiro[indole-3,4′-piperidin]-1′-yl)carbonyl]piperidine-1-carbonyl}piperidin-1-yl)phenyl]-1,3-diazinane-2,4-dione], the 50% degradation concentration (DC50) was less than 100 nM and the greatest degradation seen (Dmax) was more than 85%.

For `CC(C)n1cnc2cc(-c3ccc4c(c3)N([C@H]3C[C@@H](N5CCCCC5)C3)C(=O)C43CCN(C(=O)C4CCN(C(=O)C5CCN(c6ccc(N7CCC(=O)NC7=O)cc6)CC5)CC4)CC3)nc(Nc3ccncc3F)c21` [Example 71, 1-[4-(4-{4-[(6-{4-[(3-Fluoropyridin-4-yl)amino]-3-(propan-2-yl)-3H-imidazo[4,5-c]pyridin-6-yl}-2-oxo-1-[(1S,3S)-3-(piperidin-1-yl)cyclobutyl]-1,2-dihydrospiro[indole-3,4′-piperidin]-1′-yl)carbonyl]piperidine-1-carbonyl}piperidin-1-yl)phenyl]-1,3-diazinane-2,4-dione], the 50% degradation concentration (DC50) was less than 100 nM and the Dmax fell in the range of 70 to 85%.

In the case of `CC(C)n1cnc2cc(-c3ccc4c(c3)N([C@H]3C[C@@H](N5CCCCC5)C3)C(=O)C43CCN(C(=O)C4CCN(C(=O)C5CCN(c6ccc(C7CCC(=O)NC7=O)cn6)CC5)CC4)CC3)nc(NC3CC3)c21` (stereo partly drawn) [Example 73, 3-(6-(4-(4-(6-(4-(cyclopropylamino)-3-isopropyl-3H-imidazo[4,5-c]pyridin-6-yl)-2-oxo-1-((1S,3S)-3-(piperidin-1-yl)cyclobutyl)spiro[indoline-3,4′-piperidine]-1′-carbonyl)piperidine-1-carbonyl)piperidin-1-yl)pyridin-3-yl)piperidine-2,6-dione], the DC50 lay within 100 to 500 nM and the Dmax lay within 70 to 85%.
